Measurements taken from US7919498B2, “Substituted pyrazolo[3,4-d]pyrimidines as PI3K inhibitors” (Amgen Inc., priority 2007, dated 2011).

Tests used:
human B cells = assay: Human B cells proliferation stimulated by anti-IgM; assay type: cell-based; settings: B-cell; anti-Human IgM + CD40L-LZ, 72 h, 3H thymidine
Method: Human B Cells Proliferation Stimulate by Anti-IgM
Isolate PBMCs from Leukopac or from human fresh blood. Isolate human B cells by using Miltenyi protocol and B cell isolation kit II.—human B cells were Purified by using AutoMacs.column.
Activation of Human B Cells
Use 96 well Flat bottom plate, plate 50000/well purified B cells in B cell proliferation medium (DMEM+5% FCS, 10 mM Hepes, 50 μM 2-mercaptoethanol); 150 μL medium contain 250 ng/mL CD40L-LZ recombinant protein (Amgen) and 2 μg/mL anti-Human IgM antibody (Jackson ImmunoReseach Lab.# 109-006-129), mixed with 50 μL B cell medium containing PI3K inhibitors and incubate 72 h at 37° C. incubator. After 72 h, pulse labeling B cells with 0.5-1 uCi/well ^3H thymidine for overnight ˜18 h, and harvest cell using TOM harvester.

[1] = test system: mouse model of rheumatoid arthritis; settings: in vivo; cited from earlier work
[2] = test system: model of systemic lupus erythematosis; settings: in vivo; cited from earlier work
p110δ = molecular target: T1, p110δ (Homo sapiens, UniProt O00329); settings: cited from earlier work
T1 sequence (O00329 1-1044): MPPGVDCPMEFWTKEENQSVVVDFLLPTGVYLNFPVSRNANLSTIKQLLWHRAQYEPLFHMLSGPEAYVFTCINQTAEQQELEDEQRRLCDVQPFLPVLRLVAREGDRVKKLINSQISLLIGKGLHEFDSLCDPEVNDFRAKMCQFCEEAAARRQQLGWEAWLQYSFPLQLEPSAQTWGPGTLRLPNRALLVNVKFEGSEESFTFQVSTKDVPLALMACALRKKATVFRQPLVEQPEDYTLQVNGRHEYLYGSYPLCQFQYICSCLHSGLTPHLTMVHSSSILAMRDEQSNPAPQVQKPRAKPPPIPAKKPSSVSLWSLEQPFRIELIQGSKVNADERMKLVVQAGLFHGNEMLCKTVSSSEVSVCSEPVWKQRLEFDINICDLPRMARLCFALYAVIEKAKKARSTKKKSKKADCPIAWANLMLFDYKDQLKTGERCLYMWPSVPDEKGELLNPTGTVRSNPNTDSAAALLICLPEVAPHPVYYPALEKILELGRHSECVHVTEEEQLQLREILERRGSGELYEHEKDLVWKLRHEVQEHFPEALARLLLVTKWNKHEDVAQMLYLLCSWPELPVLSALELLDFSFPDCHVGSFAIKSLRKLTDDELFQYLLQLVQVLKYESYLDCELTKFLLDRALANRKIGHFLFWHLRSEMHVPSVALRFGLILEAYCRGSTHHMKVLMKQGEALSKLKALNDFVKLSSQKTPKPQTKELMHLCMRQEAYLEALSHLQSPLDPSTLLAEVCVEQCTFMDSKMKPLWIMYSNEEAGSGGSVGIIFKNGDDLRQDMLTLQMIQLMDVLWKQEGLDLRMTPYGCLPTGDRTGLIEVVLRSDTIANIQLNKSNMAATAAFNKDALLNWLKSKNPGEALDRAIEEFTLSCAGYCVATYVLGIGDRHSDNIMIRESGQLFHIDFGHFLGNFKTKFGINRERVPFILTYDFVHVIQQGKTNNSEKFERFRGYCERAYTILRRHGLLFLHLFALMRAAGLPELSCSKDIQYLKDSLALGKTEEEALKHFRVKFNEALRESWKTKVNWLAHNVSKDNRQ

protein kinases = settings: cited from earlier work
murine model of asthma = settings: ovalbumin-induced airway inflammation; cited from earlier work

Row | SMILES | IC50 (human B cells) | other results
1 | Cc1cccc2nc(Cn3nc(C#N)c4c(N)ncnc43)c(-c3ccccc3Cl)nc12 [4-Amino-1-((3-(2-chlorophenyl)-5-methylquinoxalin-2-yl)methyl)-1H-pyrazolo[3,4-d]pyrimidine-3-carbonitrile] | 1.99 nM | –
2 | Cc1cccc2nc(-c3ccccc3Cl)c(Cn3nc(C#N)c4c(N)ncnc43)nc12 [4-Amino-1-((3-(2-chlorophenyl)-8-methylquinoxalin-2-yl)methyl)-1H-pyrazolo[3,4-d]pyrimidine-3-carbonitrile] | 83.8 nM | –
3 | O=C1NC(=O)/C(=C\c2ccc3nccnc3c2)S1 [AS 605240] | – | efficacy in mouse model of rheumatoid arthritis [1]: efficacious; onset of disease in model of systemic lupus erythematosis [2]: delay onset of disease
4 | Cc1nn([C@@H](C)c2cc3cccc(Cl)c3nc2-c2cccc(F)c2)c2ncnc(N)c12 [Example 23, 1-((S)-1-(8-chloro-2-(3-fluorophenyl)quinolin-3-yl)ethyl)-3-methyl-1H-pyrazolo[3,4-d]pyrimidin-4-amine] | 1.57 nM | –
5 | Nc1ncnc2c1c(I)nn2Cc1cc2c(Cl)cccc2nc1-c1ccccc1Cl [Example 25, 1-((5-Chloro-2-(2-chlorophenyl)quinolin-3-yl)methyl)-3-iodo-1H-pyrazolo-[3,4-d]pyrimidin-4-amine] | 93.4 nM | –
6 | Cn1cc(-c2nn(Cc3cc4c(Cl)cccc4nc3-c3ccccc3Cl)c3ncnc(N)c23)cn1 [Example 26, 1-((5-chloro-2-(2-chlorophenyl)quinolin-3-yl)methyl)-3-(1-methyl-1H-pyrazol-4-yl)-1H-pyrazolo[3,4-d]pyrimidin-4-amine] | 46.7 nM | –
7 | Cc1nn(Cc2cc3cccc(Cl)c3nc2-c2ccccc2C(F)(F)F)c2ncnc(N)c12 [Example 30, 1-((8-chloro-2-(2-(trifluoromethyl)phenyl)quinolin-3-yl)methyl)-3-methyl-1H-pyrazolo[3,4-d]pyrimidin-4-amine] | 44.8 nM | –
8 | Cc1nn(Cc2cc3c(Cl)cccc3nc2-c2ccccc2C(F)(F)F)c2ncnc(N)c12 [Example 31, 1-((5-Chloro-2-(2-(trifluoromethyl)phenyl)quinolin-3-yl)methyl)-3-methyl-1H-pyrazolo[3,4-d]pyrimidin-4-amine] | 136 nM | –
9 | Cc1ccccc1-n1c(Cn2cnc3c(N)ncnc32)nc2cccc(C)c2c1=O [IC87114] | – | inhibition of p110δ (p110δ): high nanomolar range (triple digit); activity against any protein kinases tested (protein kinases): no activity; inflammation and disease in murine model of asthma (murine model of asthma): significantly ameliorate inflammation and disease
